Reference: US12281080B2, “Quinoline-based compounds and methods of inhibiting CDK8/19” (University of South Carolina, priority 2018, dated 2025)
pKd: −log10 of the molar value.

What was measured:
ACVRL1 = ACVRL1 (Homo sapiens (Human), UniProt P37023); experiment: KINOMEscan scanMAX; assay type: binding; conditions: 2000 nM; read-out: Percent Control
ADCK4 = ADCK4 (Homo sapiens (Human), UniProt Q96D53); experiment: KINOMEscan scanMAX; assay type: binding; conditions: 2000 nM; read-out: Percent Control
AKT2 = AKT2 (Homo sapiens (Human), UniProt P31751); experiment: KINOMEscan scanMAX; assay type: binding; conditions: 2000 nM; read-out: Percent Control
ASK2 (MAP3K6) = ASK2 (MAP3K6) (Homo sapiens (Human), UniProt O95382); experiment: KINOMEscan scanMAX; assay type: binding; conditions: 2000 nM; read-out: Percent Control
BRK (PTK6) = BRK (PTK6) (Homo sapiens (Human), UniProt Q13882); experiment: KINOMEscan scanMAX; assay type: binding; conditions: 2000 nM; read-out: Percent Control
CAMK1G = CAMK1G (Homo sapiens (Human), UniProt Q96NX5); experiment: KINOMEscan scanMAX; assay type: binding; conditions: 2000 nM; read-out: Percent Control
CDKL5 = CDKL5 (Homo sapiens (Human), UniProt O76039); experiment: KINOMEscan scanMAX; assay type: binding; conditions: 2000 nM; read-out: Percent Control
CHEK1 = CHEK1 (Homo sapiens (Human), UniProt O14757); experiment: KINOMEscan scanMAX; assay type: binding; conditions: 2000 nM; read-out: Percent Control
CIT = CIT (Homo sapiens (Human), UniProt O14578); experiment: KINOMEscan scanMAX; assay type: binding; conditions: 2000 nM; read-out: Percent Control
CSF1R-autoinhibited = CSF1R-autoinhibited (Homo sapiens (Human), UniProt P07333); experiment: KINOMEscan scanMAX; assay type: binding; conditions: 2000 nM; read-out: Percent Control
CSNK1G3 = CSNK1G3 (Homo sapiens (Human), UniProt Q9Y6M4); experiment: KINOMEscan scanMAX; assay type: binding; conditions: 2000 nM; read-out: Percent Control
DAPK3 = DAPK3 (Homo sapiens (Human), UniProt O43293); experiment: KINOMEscan scanMAX; assay type: binding; conditions: 2000 nM; read-out: Percent Control
DCAMKL1 (DCLK1) = DCAMKL1 (DCLK1) (Homo sapiens (Human), UniProt O15075); experiment: KINOMEscan scanMAX; assay type: binding; conditions: 2000 nM; read-out: Percent Control
DYRK1A = DYRK1A (Homo sapiens (Human), UniProt Q13627); experiment: KINOMEscan scanMAX; assay type: binding; conditions: 2000 nM; read-out: Percent Control
EGFR(L747-T751del, Sins) = EGFR(L747-T751del, Sins) (Homo sapiens (Human), UniProt P00533, DEL747-751/INS746S); experiment: KINOMEscan scanMAX; assay type: binding; conditions: 2000 nM; read-out: Percent Control
EGFR(L858R, T790M) = EGFR(L858R, T790M) (Homo sapiens (Human), UniProt P00533, L858R/T790M); experiment: KINOMEscan scanMAX; assay type: binding; conditions: 2000 nM; read-out: Percent Control
ERK1 (MAPK3) = ERK1 (MAPK3) (Homo sapiens (Human), UniProt P27361); experiment: KINOMEscan scanMAX; assay type: binding; conditions: 2000 nM; read-out: Percent Control
ERK4 (MAPK4) = ERK4 (MAPK4) (Homo sapiens (Human), UniProt P31152); experiment: KINOMEscan scanMAX; assay type: binding; conditions: 2000 nM; read-out: Percent Control
FES = FES (Homo sapiens (Human), UniProt P07332); experiment: KINOMEscan scanMAX; assay type: binding; conditions: 2000 nM; read-out: Percent Control
FGFR3(G697C) = FGFR3(G697C) (Homo sapiens (Human), UniProt P22607, G697C); experiment: KINOMEscan scanMAX; assay type: binding; conditions: 2000 nM; read-out: Percent Control
[1] = biological target: GCN2(Kin.Dom.2, S808G) (EIF2AK4) (Homo sapiens (Human), UniProt Q9P2K8, S808G); experiment: KINOMEscan scanMAX; assay type: binding; conditions: 2000 nM; read-out: Percent Control
GSK3B = GSK3B (Homo sapiens (Human), UniProt P49841); experiment: KINOMEscan scanMAX; assay type: binding; conditions: 2000 nM; read-out: Percent Control
IKK-alpha (CHUK) = IKK-alpha (CHUK) (Homo sapiens (Human), UniProt O15111); experiment: KINOMEscan scanMAX; assay type: binding; conditions: 2000 nM; read-out: Percent Control
IRAK4 = IRAK4 (Homo sapiens (Human), UniProt Q9NWZ3); experiment: KINOMEscan scanMAX; assay type: binding; conditions: 2000 nM; read-out: Percent Control
KIT(V559D, T670I) = KIT(V559D, T670I) (Homo sapiens (Human), UniProt P10721, T670I/V559D); experiment: KINOMEscan scanMAX; assay type: binding; conditions: 2000 nM; read-out: Percent Control
MEK5 (MAP2K5) = MEK5 (MAP2K5) (Homo sapiens (Human), UniProt Q13163); experiment: KINOMEscan scanMAX; assay type: binding; conditions: 2000 nM; read-out: Percent Control
MEK6 (MAP2K6) = MEK6 (MAP2K6) (Homo sapiens (Human), UniProt P52564); experiment: KINOMEscan scanMAX; assay type: binding; conditions: 2000 nM; read-out: Percent Control
MLCK (MYLK3) = MLCK (MYLK3) (Homo sapiens (Human), UniProt Q32MK0); experiment: KINOMEscan scanMAX; assay type: binding; conditions: 2000 nM; read-out: Percent Control
MLK2 (MAP3K10) = MLK2 (MAP3K10) (Homo sapiens (Human), UniProt Q02779); experiment: KINOMEscan scanMAX; assay type: binding; conditions: 2000 nM; read-out: Percent Control
MST1 (STK4) = MST1 (STK4) (Homo sapiens (Human), UniProt Q13043); experiment: KINOMEscan scanMAX; assay type: binding; conditions: 2000 nM; read-out: Percent Control
MST1R = MST1R (Homo sapiens (Human), UniProt Q04912); experiment: KINOMEscan scanMAX; assay type: binding; conditions: 2000 nM; read-out: Percent Control
NDR2 (STK38L) = NDR2 (STK38L) (Homo sapiens (Human), UniProt Q9Y2H1); experiment: KINOMEscan scanMAX; assay type: binding; conditions: 2000 nM; read-out: Percent Control
NEK4 = NEK4 (Homo sapiens (Human), UniProt P51957); experiment: KINOMEscan scanMAX; assay type: binding; conditions: 2000 nM; read-out: Percent Control
PCTK1 (CDK16) = PCTK1 (CDK16) (Homo sapiens (Human), UniProt Q00536); experiment: KINOMEscan scanMAX; assay type: binding; conditions: 2000 nM; read-out: Percent Control
PDPK1 = PDPK1 (Homo sapiens (Human), UniProt O15530); experiment: KINOMEscan scanMAX; assay type: binding; conditions: 2000 nM; read-out: Percent Control
PRKX = PRKX (Homo sapiens (Human), UniProt P51817); experiment: KINOMEscan scanMAX; assay type: binding; conditions: 2000 nM; read-out: Percent Control
STK33 = STK33 (Homo sapiens (Human), UniProt Q9BYT3); experiment: KINOMEscan scanMAX; assay type: binding; conditions: 2000 nM; read-out: Percent Control
ZAP70 = ZAP70 (Homo sapiens (Human), UniProt P43403); experiment: KINOMEscan scanMAX; assay type: binding; conditions: 2000 nM; read-out: Percent Control
HASPIN = HASPIN (Homo sapiens (Human), UniProt Q8TF76); experiment: DiscoverX Kd assay
Sequence of HASPIN (Q8TF76 whole entry): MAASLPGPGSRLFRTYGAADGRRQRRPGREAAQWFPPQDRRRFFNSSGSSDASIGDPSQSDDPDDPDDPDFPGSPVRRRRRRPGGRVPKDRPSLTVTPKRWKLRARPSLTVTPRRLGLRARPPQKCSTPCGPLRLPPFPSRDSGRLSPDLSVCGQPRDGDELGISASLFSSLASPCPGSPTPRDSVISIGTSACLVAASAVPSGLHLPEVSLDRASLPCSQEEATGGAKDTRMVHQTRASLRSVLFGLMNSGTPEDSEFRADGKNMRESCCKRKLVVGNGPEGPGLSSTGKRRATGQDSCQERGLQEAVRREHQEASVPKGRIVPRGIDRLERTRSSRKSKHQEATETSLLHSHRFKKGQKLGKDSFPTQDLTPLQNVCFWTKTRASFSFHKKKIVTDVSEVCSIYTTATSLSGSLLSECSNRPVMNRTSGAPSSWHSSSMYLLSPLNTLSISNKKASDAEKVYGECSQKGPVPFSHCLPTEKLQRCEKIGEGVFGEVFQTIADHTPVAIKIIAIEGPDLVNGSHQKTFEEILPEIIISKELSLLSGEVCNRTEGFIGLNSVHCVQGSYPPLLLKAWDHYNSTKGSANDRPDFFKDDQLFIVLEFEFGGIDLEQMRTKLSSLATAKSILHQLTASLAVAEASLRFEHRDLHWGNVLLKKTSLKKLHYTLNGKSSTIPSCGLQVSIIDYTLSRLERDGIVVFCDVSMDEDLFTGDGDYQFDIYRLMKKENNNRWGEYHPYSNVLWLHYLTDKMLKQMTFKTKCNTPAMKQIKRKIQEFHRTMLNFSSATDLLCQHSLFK

Sequence of MEK5 (MAP2K5) (Q13163 whole entry): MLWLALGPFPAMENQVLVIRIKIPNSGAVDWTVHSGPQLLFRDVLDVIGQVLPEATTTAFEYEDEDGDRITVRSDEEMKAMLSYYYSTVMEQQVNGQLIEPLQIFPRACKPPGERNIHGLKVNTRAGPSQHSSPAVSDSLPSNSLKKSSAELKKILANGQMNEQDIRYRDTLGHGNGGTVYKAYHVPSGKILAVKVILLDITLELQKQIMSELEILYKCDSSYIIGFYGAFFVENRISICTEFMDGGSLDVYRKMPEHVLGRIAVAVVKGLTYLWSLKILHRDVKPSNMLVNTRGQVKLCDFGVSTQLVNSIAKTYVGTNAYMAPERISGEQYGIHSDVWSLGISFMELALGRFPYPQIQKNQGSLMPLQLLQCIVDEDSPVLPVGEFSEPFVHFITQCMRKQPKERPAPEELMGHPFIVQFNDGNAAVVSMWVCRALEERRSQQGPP
Sequence of ASK2 (MAP3K6) (O95382 whole entry): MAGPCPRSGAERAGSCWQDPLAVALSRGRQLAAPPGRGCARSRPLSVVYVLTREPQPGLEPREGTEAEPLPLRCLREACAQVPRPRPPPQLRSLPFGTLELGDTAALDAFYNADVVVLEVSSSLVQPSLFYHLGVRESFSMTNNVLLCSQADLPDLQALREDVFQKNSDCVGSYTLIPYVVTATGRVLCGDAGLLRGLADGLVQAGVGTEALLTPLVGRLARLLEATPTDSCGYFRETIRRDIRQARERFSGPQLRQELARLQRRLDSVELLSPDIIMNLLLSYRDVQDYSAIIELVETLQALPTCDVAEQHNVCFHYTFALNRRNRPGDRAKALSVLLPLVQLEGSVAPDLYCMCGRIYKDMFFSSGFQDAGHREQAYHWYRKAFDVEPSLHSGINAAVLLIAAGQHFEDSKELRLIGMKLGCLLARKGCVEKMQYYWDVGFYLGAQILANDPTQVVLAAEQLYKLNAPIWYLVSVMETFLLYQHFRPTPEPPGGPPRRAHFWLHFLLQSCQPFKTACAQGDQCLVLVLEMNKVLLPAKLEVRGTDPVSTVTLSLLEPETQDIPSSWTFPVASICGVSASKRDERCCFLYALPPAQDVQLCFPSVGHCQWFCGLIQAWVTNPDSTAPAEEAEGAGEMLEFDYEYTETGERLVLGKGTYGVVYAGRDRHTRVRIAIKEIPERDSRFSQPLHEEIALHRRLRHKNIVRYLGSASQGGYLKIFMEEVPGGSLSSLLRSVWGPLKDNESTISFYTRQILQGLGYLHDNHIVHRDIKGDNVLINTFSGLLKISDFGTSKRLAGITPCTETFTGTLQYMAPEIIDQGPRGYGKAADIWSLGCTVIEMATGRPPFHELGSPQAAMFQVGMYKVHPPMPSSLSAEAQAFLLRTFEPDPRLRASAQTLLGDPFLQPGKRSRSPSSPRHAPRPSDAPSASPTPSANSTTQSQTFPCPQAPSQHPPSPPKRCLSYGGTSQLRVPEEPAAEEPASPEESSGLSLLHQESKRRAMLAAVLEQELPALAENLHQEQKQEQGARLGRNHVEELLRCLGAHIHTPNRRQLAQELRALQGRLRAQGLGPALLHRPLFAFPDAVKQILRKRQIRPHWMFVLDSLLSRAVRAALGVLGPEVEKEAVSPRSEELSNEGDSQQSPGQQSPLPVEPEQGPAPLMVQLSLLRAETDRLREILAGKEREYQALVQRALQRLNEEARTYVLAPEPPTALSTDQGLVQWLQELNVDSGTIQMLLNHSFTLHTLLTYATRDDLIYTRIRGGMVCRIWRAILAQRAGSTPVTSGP
Sequence of NEK4 (P51957 whole entry): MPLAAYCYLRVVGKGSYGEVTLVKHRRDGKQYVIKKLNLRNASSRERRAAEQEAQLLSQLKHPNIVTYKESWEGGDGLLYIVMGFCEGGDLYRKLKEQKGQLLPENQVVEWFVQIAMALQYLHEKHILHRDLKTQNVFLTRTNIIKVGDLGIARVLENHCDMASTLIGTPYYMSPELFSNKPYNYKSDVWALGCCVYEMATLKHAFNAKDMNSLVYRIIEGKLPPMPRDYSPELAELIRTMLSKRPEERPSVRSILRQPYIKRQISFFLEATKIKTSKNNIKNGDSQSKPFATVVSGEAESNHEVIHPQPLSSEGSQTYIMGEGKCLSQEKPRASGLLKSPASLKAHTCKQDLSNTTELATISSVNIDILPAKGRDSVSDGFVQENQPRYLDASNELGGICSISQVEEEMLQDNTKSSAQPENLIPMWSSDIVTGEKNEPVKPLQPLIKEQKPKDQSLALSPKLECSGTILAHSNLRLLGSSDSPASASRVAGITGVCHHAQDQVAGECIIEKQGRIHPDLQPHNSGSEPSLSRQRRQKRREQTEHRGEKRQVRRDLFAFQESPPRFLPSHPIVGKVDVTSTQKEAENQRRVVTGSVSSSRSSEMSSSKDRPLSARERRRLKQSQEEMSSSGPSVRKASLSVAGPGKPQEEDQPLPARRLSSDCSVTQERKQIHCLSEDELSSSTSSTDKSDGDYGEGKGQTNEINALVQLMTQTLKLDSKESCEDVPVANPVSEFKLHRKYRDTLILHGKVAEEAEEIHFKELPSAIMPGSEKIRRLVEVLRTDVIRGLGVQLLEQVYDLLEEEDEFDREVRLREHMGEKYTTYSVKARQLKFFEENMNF
Sequence of GCN2(Kin.Dom.2, S808G) (EIF2AK4) (Q9P2K8 590-1001 S808G): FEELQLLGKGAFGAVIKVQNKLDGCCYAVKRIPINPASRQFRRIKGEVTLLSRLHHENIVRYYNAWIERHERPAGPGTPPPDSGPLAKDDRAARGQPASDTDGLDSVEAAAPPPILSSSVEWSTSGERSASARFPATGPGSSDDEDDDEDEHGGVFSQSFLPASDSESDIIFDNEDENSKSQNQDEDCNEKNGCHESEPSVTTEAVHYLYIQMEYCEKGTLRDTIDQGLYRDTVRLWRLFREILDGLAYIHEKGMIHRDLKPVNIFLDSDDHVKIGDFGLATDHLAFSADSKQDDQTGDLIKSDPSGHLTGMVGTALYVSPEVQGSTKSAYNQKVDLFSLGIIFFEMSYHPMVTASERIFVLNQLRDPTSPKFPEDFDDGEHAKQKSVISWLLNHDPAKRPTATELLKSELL
Sequence of KIT(V559D, T670I) (P10721 26-976 V559D/T670I): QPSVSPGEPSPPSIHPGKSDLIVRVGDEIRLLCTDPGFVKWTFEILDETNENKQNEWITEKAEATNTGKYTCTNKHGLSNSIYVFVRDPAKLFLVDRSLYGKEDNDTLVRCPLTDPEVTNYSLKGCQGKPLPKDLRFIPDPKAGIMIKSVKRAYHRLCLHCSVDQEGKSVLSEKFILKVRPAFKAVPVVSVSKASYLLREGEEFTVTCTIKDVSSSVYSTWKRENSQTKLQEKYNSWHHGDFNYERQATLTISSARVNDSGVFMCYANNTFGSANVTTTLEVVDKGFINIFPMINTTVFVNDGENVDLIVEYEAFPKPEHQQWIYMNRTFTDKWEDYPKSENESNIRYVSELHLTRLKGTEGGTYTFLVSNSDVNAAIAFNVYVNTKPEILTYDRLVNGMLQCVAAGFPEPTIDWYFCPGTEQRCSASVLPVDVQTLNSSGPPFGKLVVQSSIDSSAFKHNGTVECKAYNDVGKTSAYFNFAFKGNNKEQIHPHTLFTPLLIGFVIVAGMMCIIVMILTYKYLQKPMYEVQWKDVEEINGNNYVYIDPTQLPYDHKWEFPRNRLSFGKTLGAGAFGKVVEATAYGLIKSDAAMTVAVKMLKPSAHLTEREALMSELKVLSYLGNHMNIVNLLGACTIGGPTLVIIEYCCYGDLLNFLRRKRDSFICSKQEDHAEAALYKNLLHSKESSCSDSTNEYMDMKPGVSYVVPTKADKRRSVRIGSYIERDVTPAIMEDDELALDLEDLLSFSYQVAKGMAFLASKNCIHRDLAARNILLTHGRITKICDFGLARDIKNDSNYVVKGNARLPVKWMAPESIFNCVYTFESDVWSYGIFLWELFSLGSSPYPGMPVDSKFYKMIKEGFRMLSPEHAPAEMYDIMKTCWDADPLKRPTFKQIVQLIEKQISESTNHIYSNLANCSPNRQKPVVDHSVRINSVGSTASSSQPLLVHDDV
Sequence of EGFR(L747-T751del, Sins) (P00533 other isoform, or with tags, fused parts or gaps del 1-668/ins S behind 746/del 747-751/del 1012-1210 limits assumed): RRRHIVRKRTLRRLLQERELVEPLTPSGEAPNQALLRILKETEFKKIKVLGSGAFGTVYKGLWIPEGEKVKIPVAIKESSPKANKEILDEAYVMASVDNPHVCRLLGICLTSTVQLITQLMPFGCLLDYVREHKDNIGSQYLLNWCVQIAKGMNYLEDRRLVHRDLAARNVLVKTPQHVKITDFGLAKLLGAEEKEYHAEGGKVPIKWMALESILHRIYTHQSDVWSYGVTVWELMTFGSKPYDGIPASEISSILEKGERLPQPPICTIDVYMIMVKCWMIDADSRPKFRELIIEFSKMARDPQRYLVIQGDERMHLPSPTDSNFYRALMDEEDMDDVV

## CN1CCN(C(=O)c2ccc3cc(CCNc4ccnc5ccc(C#N)cc45)ccc3c2)CC1 [compound 6148, 4-((2-(6-(4-methylpiperazine-1-carbonyl)naphthalen-2-yl)ethyl)amino)quinoline-6-carbonitrile]
ACVRL1
  remaining binding at 2 µM: 93%
ADCK4
  remaining binding at 2 µM: 97%
AKT2
  remaining binding at 2 µM: 100%
ASK2 (MAP3K6)
  remaining binding at 2 µM: 79%
BRK (PTK6)
  remaining binding at 2 µM: 97%
CAMK1G
  remaining binding at 2 µM: 92%
CDKL5
  remaining binding at 2 µM: 70%
CHEK1
  remaining binding at 2 µM: 100%
CIT
  remaining binding at 2 µM: 48%
CSF1R-autoinhibited
  remaining binding at 2 µM: 91%
CSNK1G3
  remaining binding at 2 µM: 76%
DAPK3
  remaining binding at 2 µM: 95%
DCAMKL1 (DCLK1)
  remaining binding at 2 µM: 63%
DYRK1A
  remaining binding at 2 µM: 63%
EGFR(L747-T751del, Sins)
  remaining binding at 2 µM: 74%
EGFR(L858R, T790M)
  remaining binding at 2 µM: 82%
ERK1 (MAPK3)
  remaining binding at 2 µM: 95%
ERK4 (MAPK4)
  remaining binding at 2 µM: 87%
FES
  remaining binding at 2 µM: 81%
FGFR3(G697C)
  remaining binding at 2 µM: 93%
[1]
  remaining binding at 2 µM: 93%
GSK3B
  remaining binding at 2 µM: 67%
IKK-alpha (CHUK)
  remaining binding at 2 µM: 76%
IRAK4
  remaining binding at 2 µM: 67%
KIT(V559D, T670I)
  remaining binding at 2 µM: 90%
MEK5 (MAP2K5)
  remaining binding at 2 µM: 63%
MEK6 (MAP2K6)
  remaining binding at 2 µM: 80%
MLCK (MYLK3)
  remaining binding at 2 µM: 100%
MLK2 (MAP3K10)
  remaining binding at 2 µM: 79%
MST1 (STK4)
  remaining binding at 2 µM: 95%
MST1R
  remaining binding at 2 µM: 100%
NDR2 (STK38L)
  remaining binding at 2 µM: 96%
NEK4
  remaining binding at 2 µM: 60%
PCTK1 (CDK16)
  remaining binding at 2 µM: 68%
PDPK1
  remaining binding at 2 µM: 86%
PRKX
  remaining binding at 2 µM: 100%
STK33
  remaining binding at 2 µM: 93%
ZAP70
  remaining binding at 2 µM: 81%
HASPIN
  pKd: 6.00
